One may read the logD as lipophilicity at a set pH, counting ionised and neutral species. The term logP denotes the decadic logarithm of the partition coefficient of the neutral form, usually between octanol and water.

The structures appear in SMILES notation.

One data set can be described thus: method code SF-AS, from DOI: 10.1248/cpb.39.458, PMID: 1829027. Particulars: pH 7.0.
`CCCCCC(=O)OCC1OC(n2cc(F)c(=O)[nH]c2=O)CC1OC(=O)CCCCC` (stereo unspecified) showed a logD of 4.25. The same measure, in the same setting: then `CCCCC(=O)OC[C@H]1O[C@@H](n2cc(F)c(=O)[nH]c2=O)C[C@@H]1OC(=O)CCCC`, with 2.72.

In the case of `CC(=O)OCC1OC(n2cc(F)c(=O)[nH]c2=O)CC1OC(C)=O` (stereo unspecified), the logD was -0.34. The same measure, in the same setting: the value for `CCCCCCCC(=O)OCC1OC(n2cc(F)c(=O)[nH]c2=O)CC1OC(=O)CCCCCCC` (stereo unspecified) was 6.05.

The next data set in a line: method code SF-AS, from DOI: 10.1135/cccc19881862. The note with it: pH 3.4.
The molecule `COc1ccc(COC(C(=O)O)c2ccccc2)cc1Cl` (stereo unspecified) showed a logD of 2.45. Same read-out and setting: the value for `O=C(O)C(OCc1ccccc1)c1ccccc1` (stereo unspecified) was 2.

The data set is the same for the next values; noted with them: pH 3.5.
Turning to `O=C(O)CCC(=O)c1ccc(-c2ccc(-c3ccccc3)cc2)cc1`, the logD worked out at 3.2. Same read-out and setting: then `O=C(O)CCCC(=O)c1ccc(-c2ccc(-c3ccccc3)cc2)cc1`, with 3.35.

Test in a further data set: not given
Details: not given
Turning to `O=C(CCCCC1CCSS1)NCCN1CCOCC1` (stereo unspecified), the lipophilicity (logP) worked out at 1.8. `CCCCCOC(=O)NCCN1CCOCC1`: the logP stood at 2.8. Still for that read-out and setting: then `O=C(NCCN1CCOCC1)OCCCCCC1CCSS1` (stereo unspecified), with 2.9; and `CC1CN(CCNC(=O)OCCCCCC2CCSS2)CC(C)O1` (stereo unspecified), with 4.2.

Test in the next data set: not given
Details: not given
The source holds these as a separate data set.
Molecule `O=c1[nH]ccc2c(Nc3c(Cl)cc(C4=NNCC4)cc3Cl)nc3ccncc3c12` showed a logP of 1.43. The molecule `O=c1[nH]ccc2c(Nc3c(F)cc(F)cc3Cl)nc3ccncc3c12` showed a logP of 1.75. For `O=c1[nH]ccc2c(Nc3c(Cl)cc(C(O)C(F)F)cc3Cl)nc3ccncc3c12` (stereo unspecified), the logP is 1.46. Same read-out and setting: then `CC(O)c1cc(Cl)c(Nc2nc3ccncc3c3c(=O)[nH]ccc23)c(Cl)c1` (stereo unspecified), with 1.2.

Test in another data set: not given
Details: not given
The source holds these as a separate data set.
With `O=C(CCCN1CCC(C(O)(c2ccccc2)c2ccccc2)CC1)c1ccccc1`, the logP is 4.42. The same measure, in the same setting: the value for `Cc1ccc(Cc2cnc(NCCCCc3ncc(Br)cc3C)[nH]c2=O)cn1` was 3.19; that for `CC(C)(C)c1ccc(C(O)CCCN2CCC(C(O)c3ccccc3)CC2)cc1` (stereo unspecified) was 4.06; that for `Cc1ncc2c(c1O)COC2c1ccc(Cl)cc1` (stereo unspecified) was 2.34.

The nature of a further data set: method code SF-AS, from DOI: 10.1006/pest.1994.1014.
Details: not given
`CC(C)(C)N(NC(=O)c1ccccc1F)C(=O)c1ccccc1Cl` displayed a logP of 2.63. The same measure, in the same setting: the value for `CC(C)(C)N(NC(=O)c1cccc(F)c1)C(=O)c1ccccc1Cl` was 2.88; that for `Cc1cccc(C(=O)NN(C(=O)c2ccccc2Cl)C(C)(C)C)c1` was 3.11.

`CC(C)(C)N(NC(=O)c1cccc(Cl)c1)C(=O)c1ccccc1Cl` gave a logP of 3.49.

A short description of another data set: method code SF, from DOI: 10.1016/j.bmc.2005.05.004, PMID: 15946850. The note with it: pH 7.4.
As to `[O-][n+]1onc(-c2ccc(OCCCc3c[nH]cn3)cc2)c1CO`, the logD was 1.83.

In turn, `N#Cc1c(-c2ccc(OCCCc3c[nH]cn3)cc2)no[n+]1[O-]` returned a logD of 2.99. For the molecule `OCc1nonc1-c1ccc(OCCCc2c[nH]cn2)cc1`, the pH-dependent lipophilicity (logD) turned out to be 1.96. `N#Cc1nonc1-c1ccc(OCCCc2c[nH]cn2)cc1`: the logD stood at 3.04.

A short description of the next data set: method code SF-HPLC, from DOI: 10.1002/etc.5620081103.
Details: not given
As for `CC(=O)OCCN(CCC#N)c1ccc(/N=N/c2nc3ccc([N+](=O)[O-])cc3s2)cc1`, the logP worked out at 4.6. As for `COc1cc(N=Nc2c(Br)cc([N+](=O)[O-])cc2Br)c(NC(C)=O)cc1N(CCOC(C)=O)CCOC(C)=O`, the log partition coefficient (logP) stood at 4.8. Same read-out and setting: the value for `O=C1C(c2nc3ccccc3cc2O)=C(O)c2ccccc21` was 5; that for `C=CCN(CCC#N)c1cc(NC(C)=O)c(/N=N/c2c(Br)cc([N+](=O)[O-])cc2[N+](=O)[O-])cc1OC` was 5.4.

The next data set is described as follows: method code SF, from DOI: 10.1021/jm061062o.s001, PMID: 17326614. Particulars: pH 7.4.
Regarding `CS(=O)(=O)CCN(CCS(C)(=O)=O)c1cc(C(N)=O)c([N+](=O)[O-])cc1[N+](=O)[O-]`, the logD was -0.7.

In the case of `CS(=O)(=O)c1cc([N+](=O)[O-])c(C(N)=O)cc1N(CCBr)CCBr`, the logD was 1.18.

`CS(=O)(=O)CCN(CCI)c1cc(C(N)=O)c([N+](=O)[O-])cc1[N+](=O)[O-]` returned a logD of 0.74. On the same count and under the same terms, the value for `CS(=O)(=O)CCN(CCCl)c1cc(C(N)=O)c([N+](=O)[O-])cc1[N+](=O)[O-]` was 0.42.

The nature of a further data set: from Wadhwa, L.; Chandiran, S.; Sharma, P. (2004). Alkyl esters of 6-methoxy-2-naphthylacetic acid as potential prodrugs - Synthesis, physicochemical properties, chemical stability and enzymatic …. Particulars: pH 7.4.
For `COc1ccc2cc(CC(=O)OCC(C)C)ccc2c1`, the logD came out at 4.71. Turning to `CCOC(=O)Cc1ccc2cc(OC)ccc2c1`, the logD is 3.04. Still for that read-out and setting: then `COc1ccc2cc(CC(=O)OC(C)C)ccc2c1`, with 4; and `CCCOC(=O)Cc1ccc2cc(OC)ccc2c1`, with 4.14.

The next data set in a line: method code SF-AS, from PMID: 5136171.
Details: not given
On to `CCOC(=O)c1cnc2cc(OCc3ccccc3)c(OCCOC)cc2c1O`, for which the logP worked out at 1.95.

`CCOC(=O)c1cnc2cc(OCCOC(C)C)c(OCC(C)C)cc2c1O` showed a logP of 2.17. On the same count and under the same terms, the value for `CCOC(=O)c1cnc2cc(OCCOC)c(OC)cc2c1O` was 1.36; that for `CCOC(=O)c1cnc2cc(OCC(C)C)c(OCC(C)C)cc2c1O` was 2.18.

Test in a further data set: not given
Details: not given
This is another data set of the same source.
In turn, `O=C(NNC(=O)c1ccc([N+](=O)[O-])cc1)c1ccc([N+](=O)[O-])cc1` had a lipophilicity (logP) of 2.07. The same measure, in the same setting: then `COc1ccc(C(=O)NNC(=O)c2ccccc2)cc1`, with 1.6.

The molecule `Cc1ccc(C(=O)NNC(=O)c2ccccc2)cc1` showed a logP of 1.88. On the same count and under the same terms, then `O=C(NN(C(=O)c1ccc([N+](=O)[O-])cc1)c1ccccc1)c1ccc([N+](=O)[O-])cc1`, with 4.18.

The next data set is described as follows: method code SF-HPLC, from DOI: 10.1002/ps.2780310207.
Details: not given
Regarding `Clc1ccc(C2(Cn3cncn3)CC2)cc1`, the logP was found to be 2.21. On the same count and under the same terms, the value for `CC(C)(Cn1cncn1)c1ccc(F)cc1` was 1.74; that for `Fc1ccc(C2(Cn3cncn3)CCC2)cc1` was 1.93.

Molecule `Clc1ccc(C2(Cn3cncn3)CCC2)cc1` gave a logP of 2.13.

A short description of a further data set: method code SF-AS, from DOI: 10.1023/a:1016392123137, PMID: 24272811. Particulars: pH 9.0.
In turn, `Cc1cccc(-c2cc3ccccc3c(N)n2)n1` displayed a logD of 3.18.

`Nc1nc(-c2ccccn2)cc2ccccc12`: the log distribution coefficient (logD) was 2.74. Consider `Cc1cccc2cc(-c3ccccn3)nc(N)c12`, for which the log distribution coefficient (logD) was found to be 3.05. `c1ccc(-c2cc3ccccc3cn2)nc1` returned a logD of 3.05.

Test in another data set: not given
Details: not given
This is another data set of the same source.
Regarding `O=S(=O)(Nc1cc(Cl)c(Cl)cc1Cl)c1cc(Cl)cc(Cl)c1O`, the logP was 4.32. The same measure, in the same setting: the value for `O=S(=O)(Nc1ccccc1Cl)c1c(O)c(Cl)cc(Cl)c1Cl` was 3.97; that for `O=S(=O)(Nc1cc(Cl)c(Cl)cc1Cl)c1c(O)c(Cl)cc(Cl)c1Cl` was 4.36; that for `O=S(=O)(Nc1ccc(O)cc1)c1cc(Cl)cc(Cl)c1Cl` was 4.18.

The nature of a further data set: method code SF-RC, from DOI: 10.1002/ps.2780410303. The note with it: pH 2.0.
In the case of `CC(C)C1(C)N=C(c2ncc(S(C)(=O)=O)cc2C(=O)O)NC1=O` (stereo unspecified), the logD was -0.05.

The same data set, now with this note: pH 2.5.
`CC(C)C1(C)N=C(c2ncc(CO)cc2C(=O)O)NC1=O` (stereo unspecified) returned a log distribution coefficient (logD) of -0.21.

The data set is the same for the next values; noted with them: pH 2.8.
As for `CSc1cnc(C2=NC(C)(C(C)C)C(=O)N2)c(C(=O)O)c1` (stereo unspecified), the logD stood at 0.75. Take `CCCc1cnc(C2=NC(C)(C(C)C)C(=O)N2)c(C(=O)O)c1` (stereo unspecified): the log distribution coefficient (logD) worked out at 1.27.

Test in another data set: not given
Details: not given
This is another data set of the same source.
Molecule `CC1(C)SC2C(NC(=O)CCOc3ccccc3)C(=O)N2C1C(=O)O` (stereo unspecified) came in with a lipophilicity (logP) of 2.28. As for `CC1(C)SC2C(NC(O)c3ccccc3)C(=O)N2C1C(=O)O` (stereo unspecified), the lipophilicity (logP) is 1.4.

In turn, `COc1cccc(OC)c1C(=O)N[C@@H]1C(=O)N2[C@@H]1SC(C)(C)[C@@H]2C(=O)O` had a logP of 1.22. On the same count and under the same terms, the value for `CC1(C)S[C@@H]2[C@H](NC(=O)Cc3ccccc3)C(=O)N2[C@H]1C(=O)O` was 1.83.

Test in the next data set: not given
Details: not given
This is another data set of the same source.
As for `OC1(c2ccc(F)cc2)c2ccccc2C2=NCCN21` (stereo unspecified), the lipophilicity (logP) is 0.95. On the same count and under the same terms, then `OC1(c2ccc(I)cc2)c2ccccc2C2=NCCN21` (stereo unspecified), with 2.2; and `OC1(c2cccc(F)c2)c2ccccc2C2=NCCN21` (stereo unspecified), with 1.28. The same measure, in the same setting: the value for `OC1(c2ccc(Br)cc2)c2ccccc2C2=NCCN21` (stereo unspecified) was 1.9.

Test in the next data set: not given
Details: not given
The source holds these as a separate data set.
`CCOC1OC2OC3(C)CCC4C(OC5OC(C(=O)O)C(O)C(O)C5O)CCC(C1C)C24OO3` (stereo unspecified) gave a logP of 1.05.

`CCOC1OC2OC3(C)CC(OC4OC(C(=O)O)C(O)C(O)C4O)C4C(C)CCC(C1C)C24OO3` (stereo unspecified) registered a logP of 1.73. Same read-out and setting: then `CC1CCC2C(C)C(OC3OC(C(=O)O)C(O)C(O)C3O)OC3OC4(C)CCC1C32OO4` (stereo unspecified), with 1.08; and `CCOC1OC2OC3(C)C=C(O)C4C(C)CCC(C1C)C24OO3` (stereo unspecified), with 2.7.
